Measurements taken from US20240182508A1, “AMPHIPATHIC COMPOUND, PREPARATION METHOD THEREFOR, AND SURFACTANT COMPOSITION COMPRISING SAME” (priority 2022, published 2024).

Columns and labels:
[1] = CMC (critical micelle concentration) from surface tension by the stalagmometric method; format: physicochemical; conditions: graph of surface tension versus sample concentration
Protocol: The surface tension values of steviol bisglycoside (rebaudioside A) and steviol monoglycoside-acid, ester, and amide obtained in Examples 1, 4, and 5 were measured and compared at various concentrations using the stalagmometric method. In addition, through a graph of surface tension versus sample concentration, CMC was measured to be 5.14 mM (rebaudioside A), 1.1 mM (Example 1, steviolbioside), 0.15 mM (Example 4, rebaudioside B methyl ester), and 0.5 mM (Example 5, rebaudioside B n-hexylamide).

[2] = Foaming properties (foam maintained on standing, measuring cylinder); format: physicochemical; conditions: 10 mg in 5 ml distilled water, shaken 10 seconds
Protocol: The foaming properties of steviol monoglycoside-ester obtained in Example 4 were confirmed. 5 ml of distilled water and 10 mg of steviol monoglycoside-ester obtained in Example 4 were mixed in a measuring cylinder to form micelles, then shaken for 10 seconds to generate foam, then allowed to stand at room temperature to compare the amount of foam.
Thereby, it was confirmed that about 50% of the foam was maintained after 15 minutes and about 30% of the foam was maintained after 30 minutes, based on the height of the foam.

Row | CMC [1] | foam maintained, based on the height of the foam ([2]; after 15 minutes at room temperature) | foam maintained, based on the height of the foam ([2]; after 30 minutes at room temperature) | Compound
1 | 0.15 mM | about 50% | about 30% | C=C1C[C@@]23CC[C@H]4[C@@](C)(CCC[C@@]4(C)C(=O)OC)[C@@H]2CC[C@]1(O[C@@H]1O[C@H](CO)[C@@H](O)[C@H](O[C@@H]2O[C@H](CO)[C@@H](O)[C@H](O)[C@H]2O)[C@H]1O[C@@H]1O[C@H](CO)[C@@H](O)[C@H](O)[C@H]1O)C3 [Example 4, rebaudioside B methyl ester]
2 | 0.5 mM |  |  | C=C1C[C@@]23CC[C@H]4[C@@](C)(CCC[C@@]4(C)C(=O)NCCCCCC)[C@@H]2CC[C@]1(O[C@@H]1O[C@H](CO)[C@@H](O)[C@H](O[C@@H]2O[C@H](CO)[C@@H](O)[C@H](O)[C@H]2O)[C@H]1O[C@@H]1O[C@H](CO)[C@@H](O)[C@H](O)[C@H]1O)C3 [Example 5, rebaudioside B n-hexylamide]
3 | 5.14 mM |  |  | C=C1C[C@@]23CC[C@H]4[C@@](C)(CCC[C@@]4(C)C(=O)O[C@@H]4O[C@H](CO)[C@@H](O)[C@H](O)[C@H]4O)[C@@H]2CC[C@]1(O[C@@H]1O[C@H](CO)[C@@H](O)[C@H](O[C@@H]2O[C@H](CO)[C@@H](O)[C@H](O)[C@H]2O)[C@H]1O[C@@H]1O[C@H](CO)[C@@H](O)[C@H](O)[C@H]1O)C3 [rebaudioside A, reference compound]

Row | Compound | CMC [1] | foam maintained, based on the height of the foam ([2]; after 15 minutes at room temperature) | foam maintained, based on the height of the foam ([2]; after 30 minutes at room temperature)
4 | C=C1C[C@@]23CC[C@H]4[C@@](C)(CCC[C@@]4(C)C(=O)O)[C@@H]2CC[C@]1(O[C@@H]1O[C@H](CO)[C@@H](O)[C@H](O)[C@H]1O[C@@H]1O[C@H](CO)[C@@H](O)[C@H](O)[C@H]1O)C3 [Example 1, steviolbioside] | 1.1 mM |  | 
